Measured values as given in the supplement of paper PMC10307832.

Key:
Test in all cases: relative viability (nuclei count vs DMSO), 5 days (fraction); higher = more cells survive
H3255 = tested on: H3255
Procedure, shortened: (§1)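 Medians of duplicate plates are given as relative viability. That measure is the nuclei count in treated wells divided by the count in vehicle wells. Counts were taken on 4× images of lung cancer cell lines in 1536-well plates, 5 days after pin-tool dosing the day after seeding with one drug alone or a fixed anchor-drug dose plus five library-drug doses (not always all listed) in √10 steps.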

PC-14 = tested on: PC-14
Procedure, shortened: as §1

NCI-H520 = tested on: NCI-H520
Procedure, shortened: as §1

COR-L23 = tested on: COR-L23
Procedure, shortened: as §1

CAL-12T = tested on: CAL-12T
Procedure, shortened: as §1

HCC-15 = tested on: HCC-15
Procedure, shortened: as §1

NCI-H2228 = tested on: NCI-H2228
Procedure, shortened: as §1

LK-2 = tested on: LK-2
Procedure, shortened: as §1

EKVX = tested on: EKVX
Procedure, shortened: as §1

PC-3 [JPC-3] = tested on: PC-3 [JPC-3]
Procedure, shortened: as §1

NCI-H1355 = tested on: NCI-H1355
Procedure, shortened: as §1

NCI-H1734 = tested on: NCI-H1734
Procedure, shortened: as §1

NCI-H1437 = tested on: NCI-H1437
Procedure, shortened: as §1

NCI-H1650 = tested on: NCI-H1650
Procedure, shortened: as §1

NCI-H2405 = tested on: NCI-H2405
Procedure, shortened: as §1

NCI-H2342 = tested on: NCI-H2342
Procedure, shortened: as §1

NCI-H661 = tested on: NCI-H661
Procedure, shortened: as §1

NCI-H322M = tested on: NCI-H322M
Procedure, shortened: as §1

HCC-827 = tested on: HCC-827
Procedure, shortened: as §1

SW 1573 = tested on: SW 1573
Procedure, shortened: as §1

ABC-1 = tested on: ABC-1
Procedure, shortened: as §1

RERF-LC-KJ = tested on: RERF-LC-KJ
Procedure, shortened: as §1

CC1(C)CCC(c2ccc(Cl)cc2)=C(CN2CCN(c3ccc(C(=O)NS(=O)(=O)c4ccc(N[C@H](CCN5CCOCC5)CSc5ccccc5)c(S(=O)(=O)C(F)(F)F)c4)cc3)CC2)C1 [Navitoclax] + O=C(CCCCCCC(=O)Nc1ccccc1)NO [Vorinostat] (partner 1 µM)
relative viability (H3255; first compound 0.005 µM): 0.787
relative viability (H3255; first compound 0.01581 µM): 0.958
relative viability (H3255; first compound 0.05 µM): 0.874
relative viability (H3255; first compound 0.1581 µM): 0.794
relative viability (H3255; first compound 0.5 µM): 0.586
relative viability (PC-14; first compound 0.005 µM): 0.746
relative viability (PC-14; first compound 0.01581 µM): 0.794
relative viability (PC-14; first compound 0.05 µM): 0.59
relative viability (PC-14; first compound 0.1581 µM): 0.712
relative viability (PC-14; first compound 0.5 µM): 0.687
relative viability (NCI-H520; first compound 0.005 µM): 0.743
relative viability (NCI-H520; first compound 0.01581 µM): 0.817
relative viability (NCI-H520; first compound 0.05 µM): 0.704
relative viability (NCI-H520; first compound 0.1581 µM): 0.691
relative viability (NCI-H520; first compound 0.5 µM): 0.749
relative viability (COR-L23; first compound 0.005 µM): 0.475
relative viability (COR-L23; first compound 0.01581 µM): 0.535
relative viability (COR-L23; first compound 0.05 µM): 0.425
relative viability (COR-L23; first compound 0.1581 µM): 0.386
relative viability (COR-L23; first compound 0.5 µM): 0.411
relative viability (CAL-12T; first compound 0.005 µM): 0.73
relative viability (CAL-12T; first compound 0.01581 µM): 0.825
relative viability (CAL-12T; first compound 0.05 µM): 0.901
relative viability (CAL-12T; first compound 0.1581 µM): 0.806
relative viability (CAL-12T; first compound 0.5 µM): 0.903
relative viability (HCC-15; first compound 0.005 µM): 0.808
relative viability (HCC-15; first compound 0.01581 µM): 0.831
relative viability (HCC-15; first compound 0.05 µM): 0.684
relative viability (HCC-15; first compound 0.1581 µM): 0.794
relative viability (HCC-15; first compound 0.5 µM): 0.809
relative viability (NCI-H2228; first compound 0.005 µM): 1.13
relative viability (NCI-H2228; first compound 0.01581 µM): 0.639
relative viability (NCI-H2228; first compound 0.1581 µM): 0.397
relative viability (NCI-H2228; first compound 0.5 µM): 0.641
relative viability (LK-2; first compound 0.005 µM): 0.293
relative viability (LK-2; first compound 0.01581 µM): 0.33
relative viability (LK-2; first compound 0.05 µM): 0.367
relative viability (LK-2; first compound 0.1581 µM): 0.307
relative viability (LK-2; first compound 0.5 µM): 0.277
relative viability (EKVX; first compound 0.005 µM): 0.735
relative viability (EKVX; first compound 0.01581 µM): 0.911
relative viability (EKVX; first compound 0.05 µM): 0.668
relative viability (EKVX; first compound 0.1581 µM): 0.711
relative viability (EKVX; first compound 0.5 µM): 0.79
relative viability (PC-3 [JPC-3]; first compound 0.005 µM): 0.874
relative viability (PC-3 [JPC-3]; first compound 0.01581 µM): 0.868
relative viability (PC-3 [JPC-3]; first compound 0.05 µM): 0.877
relative viability (PC-3 [JPC-3]; first compound 0.1581 µM): 0.817
relative viability (PC-3 [JPC-3]; first compound 0.5 µM): 0.499
relative viability (NCI-H1355; first compound 0.005 µM): 0.63
relative viability (NCI-H1355; first compound 0.01581 µM): 0.685
relative viability (NCI-H1355; first compound 0.05 µM): 0.618
relative viability (NCI-H1355; first compound 0.1581 µM): 0.637
relative viability (NCI-H1355; first compound 0.5 µM): 0.665
relative viability (NCI-H1734; first compound 0.005 µM): 0.829
relative viability (NCI-H1734; first compound 0.01581 µM): 0.938
relative viability (NCI-H1734; first compound 0.1581 µM): 0.755
relative viability (NCI-H1734; first compound 0.5 µM): 0.703
relative viability (NCI-H1437; first compound 0.005 µM): 0.834
relative viability (NCI-H1437; first compound 0.01581 µM): 0.888
relative viability (NCI-H1437; first compound 0.05 µM): 0.847
relative viability (NCI-H1437; first compound 0.1581 µM): 0.88
relative viability (NCI-H1437; first compound 0.5 µM): 0.808
relative viability (NCI-H1650; first compound 0.005 µM): 0.5
relative viability (NCI-H1650; first compound 0.01581 µM): 0.66
relative viability (NCI-H1650; first compound 0.05 µM): 0.671
relative viability (NCI-H1650; first compound 0.1581 µM): 0.63
relative viability (NCI-H1650; first compound 0.5 µM): 0.651
relative viability (NCI-H2405; first compound 0.005 µM): 0.979
relative viability (NCI-H2405; first compound 0.01581 µM): 1.09
relative viability (NCI-H2405; first compound 0.05 µM): 1.11
relative viability (NCI-H2405; first compound 0.1581 µM): 1
relative viability (NCI-H2405; first compound 0.5 µM): 0.811
relative viability (NCI-H2342; first compound 0.005 µM): 0.752
relative viability (NCI-H2342; first compound 0.01581 µM): 0.732
relative viability (NCI-H2342; first compound 0.05 µM): 0.814
relative viability (NCI-H2342; first compound 0.1581 µM): 0.804
relative viability (NCI-H2342; first compound 0.5 µM): 0.779
relative viability (NCI-H661; first compound 0.005 µM): 0.769
relative viability (NCI-H661; first compound 0.01581 µM): 0.727
relative viability (NCI-H661; first compound 0.05 µM): 0.809
relative viability (NCI-H661; first compound 0.1581 µM): 0.763
relative viability (NCI-H661; first compound 0.5 µM): 0.772
relative viability (NCI-H322M; first compound 0.005 µM): 1.02
relative viability (NCI-H322M; first compound 0.01581 µM): 1.06
relative viability (NCI-H322M; first compound 0.05 µM): 0.908
relative viability (NCI-H322M; first compound 0.1581 µM): 0.843
relative viability (NCI-H322M; first compound 0.5 µM): 0.999
relative viability (HCC-827; first compound 0.005 µM): 0.951
relative viability (HCC-827; first compound 0.01581 µM): 0.902
relative viability (HCC-827; first compound 0.05 µM): 0.619
relative viability (HCC-827; first compound 0.1581 µM): 0.77
relative viability (HCC-827; first compound 0.5 µM): 0.907
relative viability (SW 1573; first compound 0.005 µM): 0.607
relative viability (SW 1573; first compound 0.01581 µM): 0.9
relative viability (SW 1573; first compound 0.05 µM): 0.683
relative viability (SW 1573; first compound 0.1581 µM): 0.475
relative viability (SW 1573; first compound 0.5 µM): 0.597
relative viability (ABC-1; first compound 0.005 µM): 1.22
relative viability (ABC-1; first compound 0.01581 µM): 1.34
relative viability (ABC-1; first compound 0.05 µM): 0.725
relative viability (ABC-1; first compound 0.1581 µM): 1.41
relative viability (ABC-1; first compound 0.5 µM): 1.04
relative viability (RERF-LC-KJ; first compound 0.005 µM): 0.718
relative viability (RERF-LC-KJ; first compound 0.01581 µM): 0.654
relative viability (RERF-LC-KJ; first compound 0.05 µM): 0.645
relative viability (RERF-LC-KJ; first compound 0.1581 µM): 0.673
relative viability (RERF-LC-KJ; first compound 0.5 µM): 0.622
